Earlier results on 3 molecules are cited in patent US6458790B2, “Substituted piperidines as melanocortin receptor agonists” (Merck & Co., Inc., priority 2000, dated 2002).

In data set [1] the test system is men with erectile dysfunction. The conditions noted are these: for duration of effect / onset of action: after an oral dose; for share of men/patients in whom effective (adequate response): oral.
The test system of data set [2] is males with psychogenic erectile dysfunction.
The mark [3] stands for this setting: subcutaneous injection formulation.

Turning to `CCCc1nn(C)c2c(=O)[nH]c(-c3cc(S(=O)(=O)N4CCN(C)CC4)ccc3OCC)nc12` [Sildenafil], in data set [1], the duration of effect entry is “about 4 hours”, the onset of action was 30 to 60 min and the “share of men/patients in whom effective (adequate response)” value was “about 70%”.
With `Cc1ccc(N(CC2=NCCN2)c2cccc(O)c2)cc1` [phentolamine], in data set [1], the duration of effect was 2 h, the onset of action is 5 to 30 min and the “share of men/patients in whom effective (adequate response)” value is recorded as 35-40%.
As for “Ac-Nle-c[Asp-His-DPhe-Arg-Trp-Lys]-NH2 [MT-II]”, in data set [2] (human, in vivo, po), the “absorption into the systemic circulation” value is given as “not absorbed into the systemic circulation”. Besides, the response rate in data set [2] (injected intramuscularly or subcutaneously) is on record as 75%. Moreover, in data set [2] (setting [3]), the duration of action result is “approximately 2.5 hours” and the “time to onset of erection” value was 10 to 20 min.
